One block for each substance: values may come before it.
Tests used:
[1] = tested on: B16F10 cells; assay: Melanogenesis induced by α-MSH (melanin content assay); format: cell-based, mouse; conditions: α-MSH 100 nM, 48 hours
[2] = tested on: protein FAM86A; assay: Western blotting of protein FAM86A after α-MSH treatment; format: cell-based, mouse; conditions: B16F10 cells, α-MSH 100 nM, 48 hours
Description: The B16F10 cells cultured in Example 1 were seeded in 6-well plates at a density of 5×10^4 cells per well, grown for 24 hours, and then treated with α-MSH at 100 nM. The cells were incubated in an incubator under conditions of 37° C. and 5% CO2 for 48 hours, and washed with PBS twice. Subsequently, PBS was completely removed, and then 200 μL of RIPA buffer, which is a tissue lysis and staining reagent, was added to each plate, followed by harvesting cells with a scraper. Afterward, a BCA assay was conducted to quantify proteins, and electrophoresis was performed using 10% SDS-PAGE. The protein in the resulting SDS-PAGE gel was transferred onto a PVDF membrane, and the resulting PVDF membrane onto which the protein transfer had been completed was blocked in TBS-T (in 100 mM NaCl, 10 mM Tris, 0.1% (v/v) Tween-20, pH 7.4 (PBST) containing 3% BSA) at room temperature. After washing three times with TBS-T for 10 minutes, a primary antibody in 3% BSA dissolved in TBS-T was treated for 1 hour, and then sufficiently washed with TBS-T. In addition, a secondary antibody for 1 hour, and washed three times with PBS-T for 10 minutes each. Subsequently, the amount and location of a specific protein were confirmed using an ECL detection system. […]

[3] = tested on: tyrosinase, TYRP-1, TYRP-2, MITF and FAM86A genes; assay: Real-time PCR of melanogenesis-associated genes and FAM86A after α-MSH treatment; format: cell-based, mouse; conditions: B16F10 cells, α-MSH 100 nM, 48 hours
Description: The B16F10 cells cultured in Example 1 were seeded in 6-well plates at a density of 5×10^4 cells per well, grown for 24 hours, and then treated with α-MSH at 100 nM. The cells were incubated in an incubator under conditions of 37° C. and 5% CO2 for 48 hours. After 48 hours of incubation, the medium was completely removed, the cells were decomposed with TRIzol and neutralized using BCP. The neutralized liquid was treated with isopropanol to precipitate mRNA. Subsequently, only the precipitated mRNA was collected using a centrifuge, and used for the experiment. Intracellular mRNA was synthesized into cDNA using a cDNA kit, and the expression levels of tyrosinase, TYRP-1, TYRP-2, MITF and FAM86A genes, which are important for melanogenesis, were determined by PCR.

[4] = tested on: FAM86A (NM_201400.4); assay: shRNA mean knockdown level of FAM86A (Table 1); format: cell-based; conditions: Homo sapiens FAM86A, pLKO.1 vector
[5] = tested on: FAM86 (NM_027446.2); assay: shRNA mean knockdown level of FAM86 (Table 1); format: cell-based; conditions: Mus musculus FAM86, pLKO.1 vector

expression level of FAM86A gene [3]: decreased | expression level of MITF gene [3]: significantly increased | expression level of TYRP-1 gene [3]: significantly increased | expression level of TYRP-2 gene [3]: significantly increased | expression level of tyrosinase gene [3]: significantly increased
Substance: Ac-Ser-Tyr-Ser-Met-Glu-His-Phe-Arg-Trp-Gly-Lys-Pro-Val-NH2 [α-MSH]
melanogenesis [1]: increased | expression level of the protein FAM86A [2]: decreases

Substance: SEQ ID NO: 11: FAM86A shRNA (Homo sapiens, NM_201400.4), pLKO.1 vector, target sequence SEQ ID NO: 21 (DNA CCGGGCAGAAACTGTTTCCCTACGACTCGAGTCGTAGGGAAACAGTTTCTGCTTTTTG)
Mean Knock down level [4]: 0.93

Substance: SEQ ID NO: 12: FAM86A shRNA (Homo sapiens, NM_201400.4), pLKO.1 vector, target sequence SEQ ID NO: 22 (DNA CCGGCGAGGGAATGTCCTTCTCAATCTCGAGATTGAGAAGGACATTCCCTCGTTTTTG)
Mean Knock down level [4]: 0.84

Substance: SEQ ID NO: 13: FAM86A shRNA (Homo sapiens, NM_201400.4), pLKO.1 vector, target sequence SEQ ID NO: 23 (DNA CCGGGATGTTGTCATTGCAGCAGATCTCGAGATCTGCTGCAATGACAACATCTTTTTG)
Mean Knock down level [4]: 0.79

Substance: SEQ ID NO: 14: FAM86A shRNA (Homo sapiens, NM_201400.4), pLKO.1 vector, target sequence SEQ ID NO: 24 (DNA CCGGGCCAGCAGTTCTGGTTCTTAACTCGAGTTAAGAACCAGAACTGCTGGCTTTTTG)
Mean Knock down level [4]: 0.77

Substance: SEQ ID NO: 15: FAM86A shRNA (Homo sapiens, NM_201400.4), pLKO.1 vector, target sequence SEQ ID NO: 25 (DNA CCGGGCAGACATCACTGCCAAGTTACTCGAGTAACTTGGCAGTGATGTCTGCTTTTTG)
Mean Knock down level [4]: 0.6

Substance: SEQ ID NO: 16: FAM86 shRNA (Mus musculus, NM_027446.2), pLKO.1 vector, target sequence SEQ ID NO: 26 (DNA CCGGGAGCATTCAGCCATCGTAATCCTCGAGGATTACGATGGCTGAATGCTCTTTTTG)
Mean Knock down level [5]: 0.56

— patent US12704520B2, “Melanogenesis detection method using FAM86A” (Research & Business Foundation Sungkyunkwan University, priority 2019, dated 2026)
